Results: patent US20050084484A1, “Reduction of oxidative stress factors” (Probi AB, priority 1999, published 2005)

How the values were obtained:
[1] = tested on: Human monocyte macrophage cells; experiment: Propionic acid induced reduction of oxidative stress (8-Isoprostane EIA); type: cell-based; conditions: 10 μM propionic acid 4 h, then LPS 1.0 ng/ml 24 h; versus control cells; mean of 3 experiments
Experimental: Human monocyte macrophage cells were isolated as described above and 6 million cells were preincubated in 2 ml of RPMI-1640 medium (10% fetalcalf serum, […] of penicillin/streptomycin, 2 mM glutamine) in dishes having a diameter of […]. 10 μM propionic acid was then added and the cells were incubated at 37° C. for 4 h. The medium was subsequently removed and replaced with fresh medium and the cells were stimulated with LPS (lipopolysaccharide), 1.0 ng/ml medium, in order to provoke prooxidant stress. After 24 h the medium was removed and concentrated 10 times by evaporation. Oxidative stress with and without (control cells) propionic acid was evaluated using the 8-Isoprostane EIA kit from Cayman Chemical.
The reduction of oxidative stress expressed as the mean value from 3 experiments of the decrease in the 8-isoprostane level was 47%.

[2] = tested on: monocytes and lymphocytes; experiment: Effect of ibuprofen on ROS production, comparative study; type: in vivo, human; conditions: ibuprofen 500 mg/d for 3 weeks, six healthy volunteers; preliminary data; compared with Lactobacillus plantarum 299v
Experimental: The measurement of cell oxidation is based on reactive oxygen species (ROS) mediated conversion of nonfluorescent 2,7′-dichlorofluorescein (DCFH), loaded into cells as 2,7′-dichlorofluorescein diacetate, into fluorescent DCF with increased fluorescence emission reflecting enhanced oxidative stress. Freshly isolated PBMC, consisting of approximatively 30% monocytes and 70% lymphocytes, were resuspended in phosphate buffered saline (PBS) followed by incubation with 20 μM […] at 37° C. for 30 min in the dark. The cells were then washed with PBS. The relative fluorescence intensity of the fluorophore 2′,7-dichlorofluorescein, which is formed by peroxide oxidation of its nonfluorescent precursor, was detected with cytofluorimetric assay (FACScan, Becton Dickinson). During flow cytometric analysis monocytes and lymphocytes were gated on the basis of forward scater (FCS) and side scater (SCC). The results are expressed as mean fluorescence intensity […].
In order to investigate the mechanisms behind the reduction of ROS by ibuprofen, a propionic acid derivative and a well-known antiinflammatory drug, ibuprofen was administered in an amount of 500 mg/d to the same group of six healthy volunteers as participated in the study described in Test 1 for 3 weeks.

Structure (SMILES)	Reduction of oxidative stress, decrease in the 8-isoprostane level [1]	ROS response of monocytes and lymphocytes [2]
CCC(=O)O [propionic acid]	47%	–
CC(C)Cc1ccc(C(C)C(=O)O)cc1 (centres unmarked) [ibuprofen]	–	respond in exactly the same way
